Reference: patent US8680290B2, “Isoxazoline derivatives and their use as herbicides” (Syngenta Limited, priority 2004, dated 2014)

How the values were obtained:
Format in all cases: in vivo
[1] = tested on: Monocotyledonous and dicotyledonous test plants; experiment: Example B1 herbicidal action, application pre-emergence (Table B1b); conditions: 250 g/ha, evaluated after 4 weeks
Method in brief: (§1)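 Visual damage rating, 10 = plant dead and 0 = unharmed, taken at 3 weeks for post-emergence and 4 weeks for pre-emergence treatment. Application by spray of formulated aqueous solution either immediately after sowing or at 8–9 days' growth, with mono- and dicot plants kept in a greenhouse.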

[2] = tested on: Monocotyledonous and dicotyledonous test plants; experiment: Example B2 herbicidal action, application post-emergence, 96-cell seed trays (Table B2a); conditions: 1000 g/ha
Procedure: Monocotyledonous and dicotyledonous test plants were sown in sterilised standard soil in seed trays each having 96 cells. After one day (pre-emergence) or after 8 to 9 days cultivation (post-emergence) under controlled conditions in a climatic chamber (cultivation at 17/23° C.; 13 hours light; 50-60% humidity; after application at 19/24° C.), the plants were treated with an aqueous spray solution of 1000 mg/l of the active ingredient used (rate of application: […]; incl. 10% DMSO as solvent). The plants were grown on in the climatic chamber until the test was evaluated (10 total damage to plant, 0=no damage to plant) after 9 or 13 days.

[3] = tested on: Monocotyledonous and dicotyledonous test plants; experiment: Example B1 herbicidal action, application post-emergence (Table B1a); conditions: 250 g/ha, evaluated after 3 weeks, scale 0-10
Method in brief: as §1

[4] = tested on: Monocotyledonous and dicotyledonous test plants; experiment: Example B2 herbicidal action, application pre-emergence, 96-cell seed trays (Table B2b); conditions: 1000 g/ha
Method in brief: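 Mono- and dicot plants in sterilised soil, 96-cell trays, sprayed 1 day after sowing (pre-emergence) or after 8–9 days growth (post-emergence) with aqueous 1000 mg/l active ingredient, 10% DMSO; climatic chamber 17/23° C, 13 h light. Damage scored 0–10 after 9 or 13 days.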

[5] = tested on: maize; experiment: Example E1 pre-emergent safening test on maize (Tables E1 Marista, E2 Lorenzo); conditions: after 14 days
Procedure: The test plants were sown in seed trays under greenhouse conditions. A standard earth was used as the culture substrate. In a pre-emergent stage, the herbicides were applied both by themselves and in a mixture with safeners to the soil surface. The application was carried out with an aqueous suspension of the test substances, prepared from a 25% wettable powder (Example F3, b according to WO 97/34485) or from a suspension concentrate (Example F8 according to WO 97/34485), to achieve a field equivalent of 200 l/ha. The tests were evaluated after 14 days (100%=plants completely dead; 0%=no phytotoxic action on the plants).

[6] = tested on: maize; experiment: Example F1 post-emergent safening test on maize (Table F1, Marista 11f); conditions: post-emergent (GS 11), after 28 days
Procedure: The test plants were sown in containers under glasshouse conditions. A standard earth was used as the culture substrate. In a maize growth stage of one leaf (GS 11), the herbicides were applied both by themselves and in a mixture with safeners to the soil and leaf surface. The application was carried out with an aqueous suspension of the test substances, prepared from a 25% wettable powder (Example F3,b according to WO 97/34485) or a suspension concentrate (Example F8 according to WO 97/34485), to achieve a field equivalent of 200 l/ha. The tests were evaluated after 28 days (100%=plants completely dead; 0%=no phytotoxic action on the plants).

Row | SMILES | herbicidal action (damage rating 0-10), Amaranthus [1] | herbicidal action (damage rating 0-10), Digitaria [1] | herbicidal action (damage rating 0-10), Panicum [1] | herbicidal action (damage rating 0-10), Setaria [1] | herbicidal action (damage rating 0-10), Sida [1] | herbicidal damage rating, Abutilon [3] | herbicidal damage rating, Amaranthus [3] | herbicidal damage rating, Digitaria [3] | herbicidal damage rating, Panicum [3] | herbicidal damage rating, Setaria [3] | herbicidal damage rating, Sida [3] | other results
1 | CC1(C)CC(S(=O)(=O)C(Cl)c2c(F)cccc2F)=NO1 (stereo not drawn) [Compound No. 1.07, 3-[chloro-(2,6-difluoro-phenyl)-methanesulfonyl]-5,5-dimethyl-4,5-dihydroisoxazole] | 8 | 10 | 10 | 10 | 7 | 5 | 3 | 5 | 7 | 7 | 2 | herbicidal action (damage rating 0-10), Agrostis ([2]; Agrostis): 8; herbicidal action (damage rating 0-10), Amaranthus ([2]; Amaranthus): 7; herbicidal action (damage rating 0-10), Poa ([2]; Poa): 8; herbicidal action (damage rating 0-10), Setaria ([2]; Setaria): 7; herbicidal action (damage rating 0-10), Agrostis ([4]; Agrostis): 10; herbicidal action (damage rating 0-10), Digitaria ([4]; Digitaria): 10; herbicidal action (damage rating 0-10), Poa ([4]; Poa): 10; herbicidal action (damage rating 0-10), Setaria ([4]; Setaria): 10
2 | Cn1nc(C(F)(F)F)c(C(Cl)S(=O)(=O)C2=NOC(C)(C)C2)c1OCC(F)(F)F (stereo not drawn) [2.04] | 10 | 10 | 10 | 10 | 8 | 7 | 4 | 4 | 8 | 6 | 6 | phytotoxic action on maize (Lorenzo) ([5]; herbicide alone 100 g/ha): 2.5%; phytotoxic action on maize (Marista) ([5]; herbicide alone 100 g/ha): 10%; phytotoxic action on maize (Lorenzo) ([5]; herbicide alone 200 g/ha): 17.5%; phytotoxic action on maize (Marista) ([5]; herbicide alone 200 g/ha): 15%
3 | Cn1nc(C(F)(F)F)c(C(Br)S(=O)(=O)C2=NOC(C)(C)C2)c1OCC(F)(F)F (stereo not drawn) [2.10] | 10 | 10 | 10 | 10 | 8 | 6 | 8 | 6 | 7 | 5 | 4 | phytotoxic action on maize (Marista 11f) ([6]; herbicide alone 37.5 g/ha): 20%; phytotoxic action on maize (Marista 11f) ([6]; herbicide alone 75 g/ha): 50%; phytotoxic action on maize (Marista 11f) ([6]; herbicide alone 150 g/ha, 100%=plants completely dead): 75%
